Laboratory results from paper PMC9292003, “A β‐ketoacyl carrier protein reductase confers heat tolerance via the regulation of fatty acid biosynthesis and stress signaling in rice” (The New Phytologist, 2021).

Target: T1, HTS1 (GST-HTS1) (Oryza sativa, UniProt Q7XMI8)
T1 construct: E. coli BL21; vector printed as pET30a
Test: NADPH absorption at
Format: biochemical
Conditions: reductase activity; co-substrate printed as NADH in results, NADPH in methods

With `CC(=O)CC(=O)SCCNC(=O)CCNC(=O)[C@H](O)C(C)(C)COP(=O)(O)OP(=O)(O)OC[C@H]1O[C@@H](n2cnc3c(N)ncnc32)[C@H](O)[C@@H]1OP(=O)(O)O` [acetoacetyl-CoA] the “NADPH absorption at 340 nm” value was “High catalytic activity was detected in GST‐HTS1 after introducing acetoacetyl‐CoA and NADH”.
